Assays:
Format in all cases: physicochemical
[1] = Light stability (light resistance) of transferred dye image under Xenon light; details: Xenon light 17,000 lux, 7 days; residual ratio of Status A reflection density 1.0
Description: Next, each of the thus image-recorded thermal transfer image-receiving material was exposed to Xenon light (17,000 lux) for 7 days to examine light stability (light resistance) of the dye image. Status A reflection densities after exposure were measured in the portions indicating status A reflection density of 1.0. A stability of the image was evaluated in terms of a residual ratio (percentage) based on the reflection destiny before exposure according to the following three grades:
A: 80% or more, but 100% or less
B: 60% or more, but […]

[2] = Solubility of dye when preparing ink sheet dye-providing layer coating composition; design: key: A: The dye easily dissolves.; B: The dye dissolves.; C: The dye is sparingly soluble, but dissolves; details: dye 5.5 parts, polyvinylbutyral resin, methyl ethyl ketone/toluene (1/1) coating composition
Description: As a support, was used a 6 μm thick polyester film, a back surface of which had been subjected to a heat resistant lubricating processing with a 1 μm thick thermosetting acrylic resin (Lumirror (trade name), a product of Toray). On the front surface of the support, the following dye-providing layer-coating composition was coated by a wire bar coating so that a dry thinness of the dye-providing layer became 1 μm. Thus, Ink sheet 1 was prepared.
Solubility of these dyes contained in these ink sheets were evaluated according to the following three grades;
A: The dye easily dissolves.
C: The dye is sparingly soluble, but dissolves.

[3] = Maximum absorption wavelength of absorption spectrum in ethyl acetate solution; details: 1×10^−6 mol/L, optical path length 10 mm
Description: A mixture of 3.53 g of Intermediate (7a) (0.01 mol), 2.76 g of potassium carbonate (0.02 mol) and dimethylacetamide (15 ml) was stirred at 0° C. To the mixture was gradually dropped 4.23 g (0.03 mol) of methyl iodide. After stirring for 3 hours at room temperature, 50 ml of water was added thereto. After extraction with 50 ml of ethyl acetate, the extracted solution was washed with saturated brine. Then, the extracted solution was concentrated with a rotary evaporator. Thus-obtained residue was purified using a silica gel chromatography (developing solvent: ethyl acetate/hexane=1/4, v/v). A yellow powder of Exemplified compound (7) was obtained. Yield: 3.01 g (82%), Melting Point: 192° C. λmax (ethyl acetate solution) of the Exemplified compound (7) was 442 nm.
Exemplified compounds (1), (5), (8), (9), (10), (13) and (23) were synthesized in the manner described above. In Table 1 shown below, are indicated the maximum absorption wavelength in each of absorption spectra of the thus-obtained Exemplified compounds (1), (5), (8), (9), (10), (13) and (23) in an ethyl acetate solution (Density: 1×10^−6 mol/L, Optical path length: 10 mm) and melting points of these compounds, together with the Exemplified compounds (7) obtained in the Synthesis Examples.

[4] = Deposition of dye with lapse of time in the ink sheet, examined by eye; design: key: A: No precipitation is observed.; B: Precipitation is slightly observed.; C: Precipitation is apparently observed; details: deposition of dye with a lapse of time in the ink sheet
Description: Further, deposition of dyes with a lapse of time in the ink sheet was examined by a native eye, thereby to evaluate based on the following three grades:
A: No precipitation is observed.
B: Precipitation is slightly observed.
C: Precipitation is apparently observed.

Structure (SMILES)	Light resistance [1]	Solubility [2]	Maximum absorption wavelength [3]	Precipitation [4]
CCc1nn(C)c2c(/N=N/c3c(C#N)c(C(C)(C)C)nn3C)c(C(C)(C)C)nn12 [Dye (9)]	A (80% or more, but 100% or less)	A	441 nm	A
CCN(CCOc1ccc(C2CCCCC2)cc1)c1ccc(C=C(C#N)C#N)cc1 [Dye for Comparison 3, reference compound]	C (less than 60%)	A	–	A
CCSc1nnc(N=Nc2c(C(C)(C)C)nn3c(C(C)C)n[nH]c23)s1 [Dye for Comparison 1, reference compound]	B (60% or more, but less than 100%)	B	–	B
Cc1nn(C)c2c(N=Nc3c(C#N)c(C(C)(C)C)nn3C)c(C(C)(C)C)nn12 [Dye (7)]	A (80% or more, but 100% or less)	A	442 nm	A
Cc1nn2nc(C(C)(C)C)c(N=Nc3c(C#N)c(C(C)(C)C)nn3C)c2n1C [Dye (1)]	A (80% or more, but 100% or less)	A	434 nm	A
Cc1nn(C)c2c(/N=N/c3nc4ccccc4n3C)c(C(C)(C)C)nn12 [Dye (14)]	A (80% or more, but 100% or less)	A	–	A
CC(C)c1nn(C)c2c(/N=N/c3c(C#N)c(C(C)(C)C)nn3C)c(C(C)(C)C)nn12 [Dye (10)]	A (80% or more, but 100% or less)	A	443 nm	A
CCn1nc(C(C)(C)C)c(C#N)c1/N=N/c1c(C(C)(C)C)nn2c(C)nn(CC)c12 [Dye (8)]	A (80% or more, but 100% or less)	A	441 nm	A
CCSc1nnc(/N=N/c2c(C(C)(C)C)nn3c(C(C)C)nn(CC)c23)s1 [Dye (23)]	A (80% or more, but 100% or less)	A	449 nm	A
CCSc1nnc(/N=N/c2c(C(C)(C)C)nn3nc(C(C)C)n(C)c23)s1 [Dye (28)]	A (80% or more, but 100% or less)	A	–	A
Cc1nsc(/N=N/c2c(C(C)(C)C)nn3c(C(C)C)nn(C)c23)c1C#N [Dye (13)]	–	–	471 nm	–

Reference: patent US8011774B2, “Azo dye, colored composition, heat-sensitive transfer recording ink sheet, heat-sensitive transfer recording method, color toner, inkjet ink and color filter” (Fujifilm Corporation, priority 2006, dated 2011)
